Assay results reported in ChEMBL document CHEMBL1201862, “PubChem BioAssay data set” (2004).
Active and inactive are the calls of the source.

Key:
[1] = biological target: T1, Long-chain-fatty-acid--AMP ligase FadD28 (Mycobacterium tuberculosis, UniProt P9WQ59); assay: Fluorescence polarization aasay to screen for inhibitors that compete for the binding of FadD28 to a bisubstrate Measured in Biochemical System Using Plate Reader - 2147-01_Inhibitor_Dose_CherryPick_Activity.; type: functional, Mycobacterium tuberculosis H37Rv
T1 sequence (P9WQ59 whole entry): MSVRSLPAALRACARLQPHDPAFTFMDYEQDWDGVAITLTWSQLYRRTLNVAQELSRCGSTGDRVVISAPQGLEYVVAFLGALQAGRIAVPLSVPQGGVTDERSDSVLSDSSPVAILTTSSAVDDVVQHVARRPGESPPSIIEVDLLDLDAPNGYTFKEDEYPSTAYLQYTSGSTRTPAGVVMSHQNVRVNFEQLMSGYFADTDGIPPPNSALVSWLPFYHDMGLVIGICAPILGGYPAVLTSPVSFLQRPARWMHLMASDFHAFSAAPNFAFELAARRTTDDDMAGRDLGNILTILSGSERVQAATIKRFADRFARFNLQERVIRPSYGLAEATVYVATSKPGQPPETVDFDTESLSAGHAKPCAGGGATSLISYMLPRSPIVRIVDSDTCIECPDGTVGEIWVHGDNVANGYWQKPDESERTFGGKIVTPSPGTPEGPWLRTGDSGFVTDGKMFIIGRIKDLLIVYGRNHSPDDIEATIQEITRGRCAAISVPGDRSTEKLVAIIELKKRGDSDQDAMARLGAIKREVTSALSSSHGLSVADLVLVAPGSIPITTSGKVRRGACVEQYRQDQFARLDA

[2] = activation of miR-122 Renilla sensor silencing – cell-based, Huh7 psiCHECK-miR122, Renilla luciferase, cherry-picked, dose response (AID 651956); type: functional;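 also: huh7 hepatoma cells stably carrying a psiCHECK-2 miR-122 sensor plasmid; renilla luciferase signal reporting endogenous miR-122 activity after 48 h compound exposure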
HEK293 [3] = assay: cells; type: functional, cell-based; conditions: Homo sapiens
HEK293 [4] = assay: inhibition of NOD1-driven NF-kB reporter – cell-based, luminescence, uHTS, primary screen (AID 1578); type: functional; conditions: Homo sapiens
[5] = blockers of HIV-1 envelope-mediated cell-cell fusion – cherry-pick, dose response (AID 652057); type: functional, cell-based
[6] = HIV-1 AD8 envelope cell-cell fusion blockers – cherry-pick, dose response (AID 652062); type: functional, cell-based;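 also: luciferase signal from cell-cell fusion driven by HIV-1 clade B AD8 Env; potency is for inhibitors of fusion seen as a drop in luminescence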
[7] = general mammalian cell viability loss – inhibitor set, cherry-pick, set 2, cytotoxicity control for miR-122 modulator project, dose response (AID 720697); type: functional, cell-based
INS1 = assay: INS-1E survival protection against cytokine death – cell-based, luminescence, retest, dose response (AID 449756); type: functional; conditions: Rattus norvegicus;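 also: cell death triggered by IL-1 beta plus TNF-alpha plus IFN-gamma mixture; protective hits raise ATP signal compared with cytokine alone wells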
[8] = viability loss in CEM21 cells – cell-based, CellTiter-Glo luminescence, cherry-picked, cytotoxicity control for viral fusion inhibitor project, dose response (AID 652042); type: functional;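 also: potency for signal decrease meaning cytotoxicity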
HEK293 [9] = assay: cells; type: functional, cell-based; conditions: Homo sapiens; remark: listed apart in the source
Streptokinase A = biological target: T2, Streptokinase A (Streptococcus pyogenes serotype M1, UniProt P10520); assay: viability-normalized secreted streptokinase activity reduction – plasminogen activation absorbance, OD405, dose response (AID 1914); type: functional, Streptococcus pyogenes M1 GAS;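 also: secreted streptokinase activity via plasminogen activation per viability signal from cell pellet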
T2 sequence (P10520 whole entry): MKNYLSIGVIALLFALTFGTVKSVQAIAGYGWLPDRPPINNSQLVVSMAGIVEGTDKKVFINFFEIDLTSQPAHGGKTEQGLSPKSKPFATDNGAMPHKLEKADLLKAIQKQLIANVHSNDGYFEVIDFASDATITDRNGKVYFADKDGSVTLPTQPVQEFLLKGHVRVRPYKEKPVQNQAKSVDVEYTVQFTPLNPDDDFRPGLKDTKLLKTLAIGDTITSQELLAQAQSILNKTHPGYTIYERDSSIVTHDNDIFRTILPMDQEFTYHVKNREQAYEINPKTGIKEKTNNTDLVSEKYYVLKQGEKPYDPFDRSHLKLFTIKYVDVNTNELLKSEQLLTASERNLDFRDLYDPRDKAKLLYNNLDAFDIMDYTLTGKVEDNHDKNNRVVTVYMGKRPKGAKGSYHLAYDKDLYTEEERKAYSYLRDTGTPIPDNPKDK

[10] = general mammalian cell viability loss – activator set, cherry-pick, cytotoxicity control for miR-122 modulator project, dose response (AID 720690); type: functional, cell-based;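 also: HEK293T human cells scored for general mammalian cytotoxicity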
[11] = off-target signal loss in HeLa-CEM21 co-culture – HeLa F-luc CTL cells, cherry-picked, counter-screen for HIV-1 Env fusion inhibitor project, dose response (AID 652040); type: functional, cell-based;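 also: potency for signal decrease marking cytotoxic or nonspecific inhibition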
[12] = blockers of HIV-1 ZM109 envelope-driven cell-cell fusion – HeLa effector, CEM target cells, luciferase, cherry-pick, dose response (AID 652058); type: functional, cell-based;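 also: luciferase signal from HIV-1 Env mediated cell-cell fusion of effector and target cells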
[13] = test system: Streptococcus sp. 'group A'; assay: Streptococcus pyogenes SK(-)GAS viability under kanamycin – luminescence, BacTiterGlo, confirmation, counter-screen for streptokinase expression inhibitor project, dose response (AID 1900); type: functional, organism-based; conditions: read-out: EC50
Streptococcus = assay: GAS UMAA2166 growth inhibition – luminescence, BacTiterGlo, counter-screen for streptokinase expression inhibitor project, dose response (AID 1915); type: functional, organism-based;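 also: potency for reduction of bacterial viability or growth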
HEK293 [14] = assay: NOD2 signaling inhibitors in MDP-stimulated cells, cell-based, uHTS, luminescence (AID 2001); type: functional; conditions: Homo sapiens
Albumin = Albumin (Bos taurus, UniProt P02769); assay: Counterscreen for inhibitors of T-cell receptor (TCR)-CD3 interaction: Fluorescence-based biochemical high throughput dose response assay to identify inhibitors of T-cell receptor (TCR)-CD3 interaction using a TAMRA-labeled BSA probe.; type: functional
[15] = biological target: SWI/SNF-related matrix-associated actin-dependent regulator of chromatin subfamily A member 2 (Homo sapiens, UniProt P51531); assay: Luminescence-based cell-based high throughput dose response assay to identify activators of the function of SWI/SNF related, matrix associated, actin dependent regulator of chromatin, subfamily a, member 2 (SMARCA2, BRM).; type: functional
[16] = Counterscreen for activators of the function of SWI/SNF related, matrix associated, actin dependent regulator of chromatin, subfamily a, member 2 (SMARCA2, BRM): Luminescence-based cell-based high throughput dose response assay to identify non-selective compounds using the VP16 reporter assay.; type: functional
[17] = biological target: T3, Nuclear receptor subfamily 0 group B member 1 (Homo sapiens, UniProt P51843); type: functional, cell-based;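 also: HEK293T cells transfected with SF-1 and DAX-1 plus StAR promoter luciferase reporter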
T3 sequence (P51843 whole entry): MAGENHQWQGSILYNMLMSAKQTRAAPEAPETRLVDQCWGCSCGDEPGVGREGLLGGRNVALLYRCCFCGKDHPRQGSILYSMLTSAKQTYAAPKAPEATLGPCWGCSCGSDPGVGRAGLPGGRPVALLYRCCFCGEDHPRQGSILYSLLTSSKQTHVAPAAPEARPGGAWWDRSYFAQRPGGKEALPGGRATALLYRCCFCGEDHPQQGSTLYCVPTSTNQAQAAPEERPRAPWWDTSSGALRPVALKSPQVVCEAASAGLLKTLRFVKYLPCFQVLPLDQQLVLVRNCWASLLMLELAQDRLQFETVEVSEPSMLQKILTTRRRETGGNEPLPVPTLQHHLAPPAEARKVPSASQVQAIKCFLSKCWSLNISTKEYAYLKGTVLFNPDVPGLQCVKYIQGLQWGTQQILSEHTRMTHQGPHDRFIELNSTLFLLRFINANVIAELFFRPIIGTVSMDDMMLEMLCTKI

cells = type: functional, cell-based
[18] = toxicity to human hepatoma HepG2 cells – cell-based, cherry-picked samples, cytotoxicity control, dose response (AID 1159577); type: functional
[19] = P. falciparum Dd2 growth inhibitors, dose response, SYBR Green, cherry-picked samples (AID 1159567); type: functional, cell-based
[20] = fluconazole-exposed Candida albicans growth modulators – fluorescence, retest, confirmation (AID 2467); type: functional, cell-based
[21] = NIH-3T3 fibroblast cytotoxicity, dose response, cytotoxicity control, cell-based, fluorescence, Alamar Blue, secondary assay (AID 2327); type: functional;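 also: NIH-3T3 mouse fibroblasts cultured with fluconazole at 8 µg/mL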
[22] = biological target: DNA (cytosine-5)-methyltransferase 1 (Homo sapiens, UniProt P26358); assay: inhibition of DNA methylation by DNMT1 – biochemical, fluorescent molecular beacon, confirmation (AID 602386); type: functional
Sequence of DNA (cytosine-5)-methyltransferase 1 (P26358 whole entry): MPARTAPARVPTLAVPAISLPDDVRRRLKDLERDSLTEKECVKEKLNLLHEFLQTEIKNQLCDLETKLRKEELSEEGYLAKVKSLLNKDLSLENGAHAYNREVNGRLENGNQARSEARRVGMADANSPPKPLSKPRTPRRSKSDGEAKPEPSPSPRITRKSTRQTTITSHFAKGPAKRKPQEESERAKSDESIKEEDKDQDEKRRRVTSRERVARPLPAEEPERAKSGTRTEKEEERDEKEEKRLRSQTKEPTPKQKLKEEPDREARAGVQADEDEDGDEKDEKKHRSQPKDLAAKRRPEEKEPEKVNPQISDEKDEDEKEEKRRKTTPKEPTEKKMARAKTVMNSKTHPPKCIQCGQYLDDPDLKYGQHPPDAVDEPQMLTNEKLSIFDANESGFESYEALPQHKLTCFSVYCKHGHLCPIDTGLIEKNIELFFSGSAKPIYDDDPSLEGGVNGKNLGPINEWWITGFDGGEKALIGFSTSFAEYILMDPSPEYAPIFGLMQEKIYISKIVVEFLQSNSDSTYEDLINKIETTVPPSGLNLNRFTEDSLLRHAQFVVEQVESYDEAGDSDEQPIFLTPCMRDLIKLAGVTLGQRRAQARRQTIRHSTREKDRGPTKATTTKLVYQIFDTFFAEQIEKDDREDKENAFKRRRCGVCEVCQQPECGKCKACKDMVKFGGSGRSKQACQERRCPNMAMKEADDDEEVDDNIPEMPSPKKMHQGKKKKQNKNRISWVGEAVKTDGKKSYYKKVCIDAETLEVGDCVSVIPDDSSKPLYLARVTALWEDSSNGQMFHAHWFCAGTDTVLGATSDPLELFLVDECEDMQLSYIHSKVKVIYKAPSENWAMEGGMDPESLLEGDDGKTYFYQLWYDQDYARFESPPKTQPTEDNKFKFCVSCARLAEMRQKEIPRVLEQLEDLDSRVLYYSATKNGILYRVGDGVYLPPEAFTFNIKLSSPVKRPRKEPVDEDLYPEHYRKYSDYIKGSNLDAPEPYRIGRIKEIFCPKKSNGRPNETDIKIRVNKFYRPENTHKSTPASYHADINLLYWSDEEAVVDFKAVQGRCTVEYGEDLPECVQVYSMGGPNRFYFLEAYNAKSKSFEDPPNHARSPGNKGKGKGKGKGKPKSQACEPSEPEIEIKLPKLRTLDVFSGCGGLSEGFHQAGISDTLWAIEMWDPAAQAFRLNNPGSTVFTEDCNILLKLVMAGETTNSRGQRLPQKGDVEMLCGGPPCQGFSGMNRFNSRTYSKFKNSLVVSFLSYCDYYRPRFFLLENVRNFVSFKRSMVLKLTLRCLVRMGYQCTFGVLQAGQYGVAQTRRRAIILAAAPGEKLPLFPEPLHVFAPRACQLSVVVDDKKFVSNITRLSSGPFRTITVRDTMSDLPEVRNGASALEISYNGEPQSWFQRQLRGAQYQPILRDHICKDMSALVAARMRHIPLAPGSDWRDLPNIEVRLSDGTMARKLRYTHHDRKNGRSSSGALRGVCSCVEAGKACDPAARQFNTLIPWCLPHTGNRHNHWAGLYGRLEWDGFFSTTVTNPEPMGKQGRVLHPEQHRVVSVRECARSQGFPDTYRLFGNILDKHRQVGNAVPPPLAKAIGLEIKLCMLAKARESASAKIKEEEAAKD

Sequence of Albumin (P02769 whole entry): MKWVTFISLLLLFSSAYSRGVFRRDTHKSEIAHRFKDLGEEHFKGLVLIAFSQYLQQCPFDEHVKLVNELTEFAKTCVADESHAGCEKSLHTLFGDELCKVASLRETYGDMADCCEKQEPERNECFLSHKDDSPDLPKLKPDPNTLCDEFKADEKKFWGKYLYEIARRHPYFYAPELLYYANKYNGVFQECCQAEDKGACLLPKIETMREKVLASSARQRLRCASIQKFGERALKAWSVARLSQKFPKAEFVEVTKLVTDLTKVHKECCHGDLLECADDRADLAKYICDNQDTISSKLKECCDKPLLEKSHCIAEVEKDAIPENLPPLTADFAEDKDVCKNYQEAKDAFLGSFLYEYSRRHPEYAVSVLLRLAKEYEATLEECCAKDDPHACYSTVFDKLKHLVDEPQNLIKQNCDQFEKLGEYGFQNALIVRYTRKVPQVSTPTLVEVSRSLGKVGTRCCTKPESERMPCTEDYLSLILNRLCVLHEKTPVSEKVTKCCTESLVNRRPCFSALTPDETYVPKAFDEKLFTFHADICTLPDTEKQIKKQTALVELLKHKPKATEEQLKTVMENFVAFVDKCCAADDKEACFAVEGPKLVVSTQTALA
Sequence of SWI/SNF-related matrix-associated actin-dependent regulator of chromatin subfamily A member 2 (P51531 whole entry): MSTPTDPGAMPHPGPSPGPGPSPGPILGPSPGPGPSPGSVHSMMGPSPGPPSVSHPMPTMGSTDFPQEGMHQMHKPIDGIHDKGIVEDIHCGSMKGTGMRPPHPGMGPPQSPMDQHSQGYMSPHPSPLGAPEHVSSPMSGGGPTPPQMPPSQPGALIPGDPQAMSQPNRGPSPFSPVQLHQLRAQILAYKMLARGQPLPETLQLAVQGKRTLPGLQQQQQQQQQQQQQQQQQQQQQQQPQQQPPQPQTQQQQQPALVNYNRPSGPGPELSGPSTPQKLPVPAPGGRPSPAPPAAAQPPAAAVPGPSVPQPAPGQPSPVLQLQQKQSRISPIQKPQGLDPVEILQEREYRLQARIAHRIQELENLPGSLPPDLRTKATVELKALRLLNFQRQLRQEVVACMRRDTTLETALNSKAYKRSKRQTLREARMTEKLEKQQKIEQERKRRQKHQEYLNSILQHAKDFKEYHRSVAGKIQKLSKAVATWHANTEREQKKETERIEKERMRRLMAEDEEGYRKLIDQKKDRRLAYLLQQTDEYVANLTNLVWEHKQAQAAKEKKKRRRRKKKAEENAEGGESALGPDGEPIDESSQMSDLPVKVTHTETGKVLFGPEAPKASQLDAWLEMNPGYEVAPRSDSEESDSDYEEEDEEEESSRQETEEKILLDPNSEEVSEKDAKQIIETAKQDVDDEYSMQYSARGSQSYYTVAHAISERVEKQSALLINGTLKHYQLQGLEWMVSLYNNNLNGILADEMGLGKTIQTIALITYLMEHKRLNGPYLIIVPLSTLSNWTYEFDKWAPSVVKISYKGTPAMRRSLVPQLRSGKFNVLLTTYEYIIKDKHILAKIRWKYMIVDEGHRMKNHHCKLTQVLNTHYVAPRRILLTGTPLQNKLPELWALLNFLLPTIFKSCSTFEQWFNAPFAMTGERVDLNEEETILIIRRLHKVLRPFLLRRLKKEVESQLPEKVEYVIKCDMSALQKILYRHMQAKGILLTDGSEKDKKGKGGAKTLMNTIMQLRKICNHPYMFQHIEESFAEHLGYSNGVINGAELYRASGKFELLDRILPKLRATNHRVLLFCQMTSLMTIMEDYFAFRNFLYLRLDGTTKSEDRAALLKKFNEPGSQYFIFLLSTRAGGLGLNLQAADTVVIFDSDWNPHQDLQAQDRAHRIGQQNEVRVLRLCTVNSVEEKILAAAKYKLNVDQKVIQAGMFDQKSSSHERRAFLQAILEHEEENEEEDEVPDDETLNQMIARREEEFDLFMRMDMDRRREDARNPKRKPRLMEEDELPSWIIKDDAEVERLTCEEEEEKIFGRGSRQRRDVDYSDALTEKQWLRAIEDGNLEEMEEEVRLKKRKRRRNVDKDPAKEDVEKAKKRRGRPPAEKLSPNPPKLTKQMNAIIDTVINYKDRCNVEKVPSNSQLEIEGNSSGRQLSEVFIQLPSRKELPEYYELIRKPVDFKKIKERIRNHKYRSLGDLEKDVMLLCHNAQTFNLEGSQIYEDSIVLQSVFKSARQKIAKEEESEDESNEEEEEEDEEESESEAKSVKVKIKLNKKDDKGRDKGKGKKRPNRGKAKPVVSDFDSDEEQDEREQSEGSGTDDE

SMILES: O=C(CN1C(=O)S/C(=C\c2cccs2)C1=O)Nc1ccc(O)cc1C(=O)O
- AC50 [1]: 94.3 µM (active)

SMILES: O=C(Nc1ccc(OC(F)F)cc1)Nc1cccc(C(F)(F)F)c1
- AC50 [2]: 32 µM (active)
- IC50 (HEK293 [3]): 3.04 µM (active)
- EC50 (HEK293 [4]): 8.15 µM (active)
- AC50 [5]: 5.03 µM (active)
- AC50 [6]: 11 µM (active)
- AC50 [7]: 10.9 µM (active)
- AC50 (INS1): 6.07 µM (active)
- AC50 [8]: 16.1 µM (active)
- IC50 (HEK293 [9]): 6.17 µM (active)
- EC50 (Streptokinase A): > 150 µM (not active)
- AC50 [10]: 6.99 µM (active)
- AC50 [11]: 10.5 µM (active)
- AC50 [12]: 5.35 µM (active)
- EC50 [13]: 13.3 µM (active)
- EC50 (Streptococcus): 44.9 µM (active)
- IC50 (HEK293 [14]): 4.14 µM (inactive)

SMILES: Cc1ccc2c(C)nc(Nc3nc(O)cc(CSc4nnnn4-c4ccccc4)n3)nc2c1
- AC50 [5]: 20.5 µM (active)
- AC50 [8]: 25.2 µM (active)
- AC50 [11]: 25.3 µM (active)
- AC50 [12]: 12.5 µM (active)

SMILES: O=C(NNC(=S)NC(=O)c1cccnc1)c1ccc(F)cc1
- IC50 (Albumin): > 94.1 µM (inactive)

SMILES: COc1ccccc1NS(=O)(=O)c1cc(NC(=O)/C=C/c2cccs2)ccc1N1CCOCC1
- EC50 [15]: > 91.2 µM (inactive)
- EC50 [16]: > 91.2 µM (inactive)

SMILES: COc1ccc(C(=O)NCCS(=O)(=O)NCCc2ccccc2)cc1
- IC50 [17]: > 67.5 µM (inactive)
- IC50 (cells): > 67.5 µM (inactive)

SMILES: CCOC(=O)NC1CCc2cc(OC)c(OC)c(OC)c2-c2ccc(SC)c(=O)cc21 (centres undefined)
- IC50 [17]: > 0.0309 µM (active)
- IC50 (cells): > 67.5 µM (inactive)

SMILES: Cc1ccc(S(=O)(=O)N2[C@@H](c3cccc(Cl)c3)C(C(=O)O)=CC[C@H]2c2cccc(C)c2)cc1
- AC50 [1]: 48.3 µM (active)

SMILES: C[C@H](CO)N1C[C@H](C)[C@H](CN(C)S(=O)(=O)c2ccccc2)Oc2ccc(NC(=O)NC3CCCCC3)cc2CC1=O
- AC50 [5]: 1.59 µM (active)
- AC50 [6]: 4.13 µM (active)
- AC50 [8]: 46.9 µM (active)
- AC50 [11]: 2.01 µM (active)
- AC50 [12]: 0.98 µM (active)

SMILES: Cc1cccc(-c2ccc([C@@H]3[C@H](CO)N4CCCCN(CCC(F)(F)F)C[C@@H]34)cc2)c1
- AC50 [2]: 14.9 µM (active)
- AC50 [18]: 10.7 µM (active)
- AC50 [7]: 28.8 µM (active)
- AC50 [10]: 17.7 µM (active)
- AC50 [19]: 0.978 µM (active)

SMILES: COc1cccc(C(=O)NNC(=O)c2ccc3ccccc3c2O)c1
- IC50 (Albumin): > 94.1 µM (inactive)
- EC50 [20]: > 38 µM (not active)
- EC50 [21]: > 150 µM (inconclusive)

SMILES: COc1cc2cc(Oc3ccc4ccc(=O)oc4c3)c(=O)oc2cc1O[C@@H]1O[C@H](CO)[C@@H](O)[C@H](O)[C@H]1O [DAPHNORIN]
- AC50 [1]: 87.2 µM (active)
- IC50 [22]: 7.56 µM (active)
